Legend:
[1] = xn = mol fraction of the nth substance listed; conditions: 101 kPa, Liquid, Vibrating tube method
[2] = excess molar enthalpy (molar enthalpy of mixing); xn = mol fraction of the nth substance listed; conditions: 291.15 K, 101 kPa, Liquid, Calvet calorimetry

CCCOC(C)=O [propyl ethanoate] + CCCCCCCCC
[1]
Conditions	mass density [kg/m3]
291.15 K, x1 = 0.0569	724.6
291.15 K, x1 = 0.1163	730.7
291.15 K, x1 = 0.1916	739
291.15 K, x1 = 0.282	750
291.15 K, x1 = 0.3583	760
291.15 K, x1 = 0.4338	770.9
291.15 K, x1 = 0.4846	778.7
291.15 K, x1 = 0.5686	792.4
291.15 K, x1 = 0.6289	803.2
291.15 K, x1 = 0.6876	814.4
291.15 K, x1 = 0.7441	826
291.15 K, x1 = 0.7948	837.1
291.15 K, x1 = 0.8162	841.9
291.15 K, x1 = 0.8844	858.5
291.15 K, x1 = 0.9349	871.7
291.15 K, x1 = 0.9464	874.9
291.15 K, x1 = 1	889.6
298.15 K, x1 = 0.0361	717.2
298.15 K, x1 = 0.0384	717.4
298.15 K, x1 = 0.1106	724.5
298.15 K, x1 = 0.2023	734.5
298.15 K, x1 = 0.2833	744.2
298.15 K, x1 = 0.3636	754.6
298.15 K, x1 = 0.4312	764.2
298.15 K, x1 = 0.5061	775.6
298.15 K, x1 = 0.5653	785.3
298.15 K, x1 = 0.6308	796.9
298.15 K, x1 = 0.6728	804.8
298.15 K, x1 = 0.7321	816.5
298.15 K, x1 = 0.7908	829
298.15 K, x1 = 0.8257	836.9
298.15 K, x1 = 0.8918	852.8
298.15 K, x1 = 0.9404	865.6
298.15 K, x1 = 1	882.5
318.15 K, x1 = 0.0217	700
318.15 K, x1 = 0.1046	707.7
318.15 K, x1 = 0.1791	715.4
318.15 K, x1 = 0.2659	725
318.15 K, x1 = 0.335	733.4
318.15 K, x1 = 0.4077	742.9
318.15 K, x1 = 0.4731	752.1
318.15 K, x1 = 0.5367	761.7
318.15 K, x1 = 0.5943	771
318.15 K, x1 = 0.6526	781.2
318.15 K, x1 = 0.7078	791.4
318.15 K, x1 = 0.7597	801.7
318.15 K, x1 = 0.8179	814.1
318.15 K, x1 = 0.8565	822.8
318.15 K, x1 = 0.8964	832.4
318.15 K, x1 = 0.9373	842.7
318.15 K, x1 = 1	859.8
328.15 K, x1 = 0.056	695.1
328.15 K, x1 = 0.1062	699.8
328.15 K, x1 = 0.1918	708.3
328.15 K, x1 = 0.2757	717.5
328.15 K, x1 = 0.3519	726.6
328.15 K, x1 = 0.429	736.7
328.15 K, x1 = 0.4999	746.7
328.15 K, x1 = 0.5709	757.6
328.15 K, x1 = 0.6217	766
328.15 K, x1 = 0.6881	777.7
328.15 K, x1 = 0.7461	788.7
328.15 K, x1 = 0.7857	796.8
328.15 K, x1 = 0.8318	806.6
328.15 K, x1 = 0.8801	817.6
328.15 K, x1 = 0.8853	818.8
328.15 K, x1 = 0.9429	833
328.15 K, x1 = 1	848.3

[2]
Conditions	excess molar enthalpy [kcal/mol]
x1 = 0.1167	0.142
x1 = 0.2247	0.2261
x1 = 0.3093	0.2789
x1 = 0.379	0.3102
x1 = 0.4448	0.325
x1 = 0.5009	0.3305
x1 = 0.5447	0.3277
x1 = 0.5617	0.3248
x1 = 0.6139	0.3136
x1 = 0.6683	0.2921
x1 = 0.7299	0.2593
x1 = 0.7964	0.215
x1 = 0.8649	0.155
x1 = 0.9356	0.0848

From the NIST ThermoML archive (doi:10.1021/je3011979)
